The record followed here is patent publication EP0229128B1, “DERIVATIVES OF GLYCERO-3(2)-PHOSPHO-L-SERINE AND PHARMACEUTICAL PREPARATIONS CONTAINING THEM” (CL PHARMA AKTIENGESELLSCHAFT, priority 1985, dated 1987).

This assay has as its system Ehrlich-Ascites-Tumorzellen. Description: Inhibition of proliferation of Ehrlich ascites tumour cells in vitro. Conditions: read-out: Hemmung der Proliferation (%) von Ehrlich-Ascites-Tumorzellen in vitro, % Hemmung; for inhibition at 1 µM: Konzentration 1 µM; for inhibition at 2 µM: Konzentration 2 µM; for inhibition at 5 µM: Konzentration 5 µM; for inhibition at 10 µM: Konzentration 10 µM; for inhibition at 20 µM: Konzentration 20 µM; for inhibition at 100 µM: Konzentration 100 µM. Type of assay: cell-based. An excerpt: Die Verbindungen der allgemeinen Formel I und Salze davon sind biologisch hochaktiv und besitzen insbesondere eine ausgeprägte Antitumorwirksamkeit. Diese wertvollen pharmakologischen Eigenschaften können in vitro und in vivo unter Verwendung von Standardmethoden nachgewiesen werden, beispielsweise indem die Hemmung der Proliferation von Ehrlich-Ascites-Tumorzellen in vitro unter Einwirkung von Glycero-3(2)-phospho-L-serinderivaten der allgemeinen Formel I bestimmt wird. • In diesem Test (Tabelle I) bewirken die erfindungsgemäßen Verbindungen, beispielsweise • 1-0-Hexadecyl-2-chlor-2-desoxy-glycero-3-phospho-L-serin (Verbindung Nr. 1) • 1-0-Hexadecyl-2-fluor-2-desoxy-glycero-3-phospho-L-serin (Verbindung Nr. 2) • 1-Chlor-1-desoxy-3-0-hexadecyl-glycero-2-phospho-L-serin (Verbindung Nr. 3) • 1-0-(2,2,2-Trifluorethy)-2-0-hexadecyl-glycero-3-phospho-L-serin (Verbindung Nr. 4), schon in sehr geringen Konzentrationen eine signifikante Hemmung des Zellwachstums von Ehrlich-Ascites-Tumorzellen.

Turning to `CCCCCCCCCCCCCCCCOCC(Cl)COP(=O)(O)OC[C@H](N)C(=O)O` (stereo partly drawn) [Verbindung Nr. 1, 1-O-Hexadecyl-2-chlor-2-desoxy-glycero-3-phospho-L-serin], the inhibition at 1 µM came out at 16%, the inhibition at 2 µM turned out to be 10%, the inhibition at 5 µM came to 30% and the inhibition at 10 µM was 55%. In addition, the inhibition at 20 µM was determined as 80% and the inhibition at 100 µM came to 95%.

Turning to `CCCCCCCCCCCCCCCCCCOCC(COP(=O)([O-])OCC[N+](C)(C)C)OC` (stereo not shown) [V, 1-O-Octadecyl-2-O-methyl-glycero-3-phosphocholin, reference compound], the inhibition at 1 µM worked out at 0%, the inhibition at 2 µM worked out at 0%, the inhibition at 5 µM was 4% and the inhibition at 10 µM came out at 23%. For the same compound, the inhibition at 20 µM stood at 62% and the inhibition at 100 µM was 100%.

Regarding `CCCCCCCCCCCCCCCCOCC(CCl)OP(=O)(O)OC[C@H](N)C(=O)O` (stereo partly drawn) [Verbindung Nr. 3, 1-Chlor-1-desoxy-3-O-hexadecyl-glycero-2-phospho-L-serin], the inhibition at 1 µM stood at 15%, the inhibition at 2 µM worked out at 17%, the inhibition at 5 µM turned out to be 38% and the inhibition at 10 µM was 68%. The inhibition at 20 µM stood at 81% and the inhibition at 100 µM amounted to 93%.

For `CCCCCCCCCCCCCCCCOC(COCC(F)(F)F)COP(=O)(O)OC[C@H](N)C(=O)O` (stereo partly drawn) [Verbindung Nr. 4, 1-O-(2,2,2-Trifluorethyl)-2-O-hexadecyl-glycero-3-phospho-L-serin], the inhibition at 5 µM stood at 10%, the inhibition at 10 µM was determined as 36%, the inhibition at 20 µM came to 74% and the inhibition at 100 µM turned out to be 100%.

Consider `CCCCCCCCCCCCCCCCOCC(F)COP(=O)(O)OC[C@H](N)C(=O)O` (stereo partly drawn) [Verbindung Nr. 2, 1-O-Hexadecyl-2-fluor-2-desoxy-glycero-3-phospho-L-serin], for which the inhibition at 1 µM was 10%, the inhibition at 2 µM amounted to 13%, the inhibition at 5 µM was found to be 18% and the inhibition at 10 µM is 51%. In addition, the inhibition at 20 µM was 82% and the inhibition at 100 µM turned out to be 95%.
